US5534508A, “Cephem compounds and antimicrobial agents” (Katayama Seiyakusyo Co., Ltd., priority 1993, dated 1996)
In brackets after ≈: the same amount, converted by molar mass.

Key:
Assay type in all cases: cell-based
A. calcoaceticos T59 = assay: MIC against standard strains (Table 1), A. calcoaceticos T59; conditions: Muller-Hinton agar, overnight 37° C., read-out: MIC (minimum growth inhibitory concentration)
Experimental: (§1) The minimum growth inhibitory concentration (MIC, μg/ml) of the compounds for each of the 25 standard laboratory strains (standard strains) shown in Table 1 was determined in accordance with the standard method of the Japan Chemotherapical Society (Chemotherapy, 29, 76-79 (1981) under "Re-revision of the measuring methods of minimum growth inhibitory concentration (MIC)").
(§2) That is, by using each test strain cultured overnight at 37° C. in a Muller-Hinton broth, there was prepared a bacterial solution with a cell density of 1×10^6 CFU/ml in the same broth. The bacterial solution was inoculated into the Muller-Hinton agar media each containing respectively one test agent (i.e., compound) and, after overnight incubation at 37° C., the minimum concentration that inhibited growth of the bacteria was determined and expressed as MIC.
(§3) Staphylococcus aureus 167 and Staphylococcus aureus 195 used in the test were MRSA. CTM (cefotiam) and FMOX (flomoxef) were used as the control agents.

E. coli CSH2(RK1) = assay: MIC against standard strains (Table 1), E. coli CSH2(RK1); conditions: Escherichia coli, read-out: MIC (minimum growth inhibitory concentration)
Experimental: as §1, §2, §3

E. coli JC-2 = assay: MIC against standard strains (Table 1), E. coli JC-2; conditions: Escherichia coli, JC2, Muller-Hinton agar, overnight 37° C., read-out: MIC (minimum growth inhibitory concentration)
Experimental: as §1, §2, §3

B. subtilis ATCC 6633 = assay: MIC against standard strains (Table 1), B. subtilis ATCC 6633; conditions: Bacillus subtilis, ATCC6633, Muller-Hinton agar, overnight 37° C., read-out: MIC (minimum growth inhibitory concentration)
Experimental: as §1, §2, §3

M. luteus ATCC 9341 = assay: MIC against standard strains (Table 1), M. luteus ATCC 9341; conditions: Micrococcus luteus, ATCC9341, Muller-Hinton agar, overnight 37° C., read-out: MIC (minimum growth inhibitory concentration)
Experimental: as §1, §2, §3

E. cloacae ATCC 13407 = assay: MIC against standard strains (Table 1), E. cloacae ATCC 13407; conditions: Enterobacter cloacae, ATCC13407, Muller-Hinton agar, overnight 37° C., read-out: MIC (minimum growth inhibitory concentration)
Experimental: as §1, §2, §3

S. marcescens IAM 1184 = assay: MIC against standard strains (Table 1), S. marcescens IAM 1184; conditions: Serratia marcescens, IAM1184, Muller-Hinton agar, overnight 37° C., read-out: MIC (minimum growth inhibitory concentration)
Experimental: as §1, §2, §3

S. aureus 209p JC-1 = assay: MIC against standard strains (Table 1), S. aureus 209p JC-1; conditions: Staphylococcus aureus, Muller-Hinton agar, overnight 37° C., read-out: MIC (minimum growth inhibitory concentration)
Experimental: as §1, §2, §3

C. freundii ATCC 8090 = assay: MIC against standard strains (Table 1), C. freundii ATCC 8090; conditions: Citrobacter freundii, ATCC8090, Muller-Hinton agar, overnight 37° C., read-out: MIC (minimum growth inhibitory concentration)
Experimental: as §1, §2, §3

S. epidemidis IAM 1296 = assay: MIC against standard strains (Table 1), S. epidemidis IAM 1296; conditions: Muller-Hinton agar, overnight 37° C., read-out: MIC (minimum growth inhibitory concentration)
Experimental: as §1, §2, §3

S. aureus 195 = assay: MIC against standard strains (Table 1), S. aureus 195 (MRSA); conditions: Staphylococcus aureus, Muller-Hinton agar, overnight 37° C., read-out: MIC (minimum growth inhibitory concentration)
Experimental: as §1, §2, §3

P. mirabilis IFO 3849 = assay: MIC against standard strains (Table 1), P. mirabilis IFO 3849; conditions: Proteus mirabilis, IFO3849, Muller-Hinton agar, overnight 37° C., read-out: MIC (minimum growth inhibitory concentration)
Experimental: as §1, §2, §3

A. faecalis ATCC 3750 = assay: MIC against standard strains (Table 1), A. faecalis ATCC 3750; conditions: Alcaligenes faecalis, ATCC3750, Muller-Hinton agar, overnight 37° C., read-out: MIC (minimum growth inhibitory concentration)
Experimental: as §1, §2, §3

P. aeruginosa AKR17 = assay: MIC against standard strains (Table 1), P. aeruginosa AKR17; conditions: Pseudomonas aeruginosa, Muller-Hinton agar, overnight 37° C., read-out: MIC (minimum growth inhibitory concentration)
Experimental: as §1, §2, §3

E. coli CSH2(RE45) = assay: MIC against standard strains (Table 1), E. coli CSH2(RE45); conditions: Escherichia coli, read-out: MIC (minimum growth inhibitory concentration)
Experimental: as §1, §2, §3

K. pneuminiae IFO 3317 = assay: MIC against standard strains (Table 1), K. pneuminiae IFO 3317; conditions: Muller-Hinton agar, overnight 37° C., read-out: MIC (minimum growth inhibitory concentration)
Experimental: as §1, §2, §3

S. aureus Smith = assay: MIC against standard strains (Table 1), S. aureus Smith; conditions: Staphylococcus aureus, Muller-Hinton agar, overnight 37° C., read-out: MIC (minimum growth inhibitory concentration)
Experimental: as §1, §2, §3

P. cepacia CN 9113 = assay: MIC against standard strains (Table 1), P. cepacia CN 9113; conditions: Burkholderia cepacia, CN9113, Muller-Hinton agar, overnight 37° C., read-out: MIC (minimum growth inhibitory concentration)
Experimental: as §1, §2, §3

S. aureus 167 = assay: MIC against standard strains (Table 1), S. aureus 167 (MRSA); conditions: Staphylococcus aureus, Muller-Hinton agar, overnight 37° C., read-out: MIC (minimum growth inhibitory concentration)
Experimental: as §1, §2, §3

K. pneuminiae No. 42 = assay: MIC against standard strains (Table 1), K. pneuminiae No. 42; conditions: Muller-Hinton agar, overnight 37° C., read-out: MIC (minimum growth inhibitory concentration)
Experimental: as §1, §2, §3

M. morganii IFO 3848 = assay: MIC against standard strains (Table 1), M. morganii IFO 3848; conditions: Morganella morganii, IFO3848, Muller-Hinton agar, overnight 37° C., read-out: MIC (minimum growth inhibitory concentration)
Experimental: as §1, §2, §3

E. cloacae Nek39 = assay: MIC against standard strains (Table 1), E. cloacae Nek39; conditions: Enterobacter cloacae, Muller-Hinton agar, overnight 37° C., read-out: MIC (minimum growth inhibitory concentration)
Experimental: as §1, §2, §3

P. aeruginosa NCTC 10490 = assay: MIC against standard strains (Table 1), P. aeruginosa NCTC 10490; conditions: Pseudomonas aeruginosa, NCTC10490, Muller-Hinton agar, overnight 37° C., read-out: MIC (minimum growth inhibitory concentration)
Experimental: as §1, §2, §3

P. vulugaris OX-19 = assay: MIC against standard strains (Table 1), P. vulugaris OX-19; conditions: Muller-Hinton agar, overnight 37° C., read-out: MIC (minimum growth inhibitory concentration)
Experimental: as §1, §2, §3

S. marcescens No. 16-2 = assay: MIC against standard strains (Table 1), S. marcescens No. 16-2; conditions: Serratia marcescens, NO.162, Muller-Hinton agar, overnight 37° C., read-out: MIC (minimum growth inhibitory concentration)
Experimental: as §1, §2, §3

clinically isolated MRSA = assay: Antibacterial potency against clinically isolated MRSA (47 strains); conditions: Staphylococcus aureus
Experimental: A test on the antibacterial potency against clinically isolated MRSA was conducted in the following way.
That is, using 47 strains of clinically isolated MRSA, MIC was determined for each of the test strains in accordance with the standard method of the Japan Chemotherapical Society as in Test Example 1, and the minimum growth inhibitory concentration which inhibited growth of 50% of the strains tested was expressed as MIC50 (μg/ml), and the minimum growth inhibitory concentration which inhibited growth of 90% of the strains tested was expressed as MIC90 (μg/ml).
In this test, FMOX was used as the control agent.

Compound	MIC (A. calcoaceticos T59) [µg/mL]	MIC (E. coli CSH2(RK1)) [µg/mL]	MIC (E. coli JC-2) [µg/mL]	MIC (B. subtilis ATCC 6633) [µg/mL]	MIC (M. luteus ATCC 9341) [µg/mL]	MIC (E. cloacae ATCC 13407) [µg/mL]	MIC (S. marcescens IAM 1184) [µg/mL]	MIC (S. aureus 209p JC-1) [µg/mL]	MIC (C. freundii ATCC 8090) [µg/mL]	MIC (S. epidemidis IAM 1296) [µg/mL]	MIC (S. aureus 195) [µg/mL]	MIC (P. mirabilis IFO 3849) [µg/mL]	MIC (A. faecalis ATCC 3750) [µg/mL]	MIC (P. aeruginosa AKR17) [µg/mL]	MIC (E. coli CSH2(RE45)) [µg/mL]	MIC (K. pneuminiae IFO 3317) [µg/mL]	MIC (S. aureus Smith) [µg/mL]	MIC (P. cepacia CN 9113) [µg/mL]	MIC (K. pneuminiae No. 42) [µg/mL]	MIC (M. morganii IFO 3848) [µg/mL]	further results
Nc1nc(/C(=N/O)C(=O)N[C@@H]2C(=O)N3C(C(=O)[O-])=C(/C=C/C[n+]4cccc(-c5csc(N)n5)c4)CS[C@H]23)cs1 [Compound 12, 7β-[2-(2-aminothiazol-4-yl)-2-syn-hydroxyiminoacetamido]-3-[(E)-3-[3-(2-aminothiazol-4-yl)pyridinio]-1-propenyl]-3-cephem-4-carboxylate]	12.5 (≈ 21.4 µM)	0.2 (≈ 0.342 µM)	0.05 (≈ 0.0855 µM)	0.2 (≈ 0.342 µM)	0.05 (≈ 0.0855 µM)	0.39 (≈ 0.667 µM)	0.1 (≈ 0.171 µM)	0.1 (≈ 0.171 µM)	0.05 (≈ 0.0855 µM)	0.05 (≈ 0.0855 µM)	1.56 (≈ 2.67 µM)	0.1 (≈ 0.171 µM)	1.56 (≈ 2.67 µM)	> 100	0.1 (≈ 0.171 µM)	0.05 (≈ 0.0855 µM)	0.1 (≈ 0.171 µM)	> 100	0.1 (≈ 0.171 µM)	0.025 (≈ 0.0428 µM)	MIC (S. aureus 167): 25 µg/mL (≈ 42.8 µM); MIC (E. cloacae Nek39): 6.25 µg/mL (≈ 10.7 µM); MIC (P. aeruginosa NCTC 10490): 3.13 µg/mL (≈ 5.35 µM); MIC (P. vulugaris OX-19): 0.05 µg/mL (≈ 0.0855 µM); MIC (S. marcescens No. 16-2): 12.5 µg/mL (≈ 21.4 µM)
CO/N=C(\C(=O)N[C@@H]1C(=O)N2C(C(=O)[O-])=C(/C=C/C[n+]3cccc(-c4csc(N)n4)c3)CS[C@H]12)c1csc(N)n1 [Compound 5, 7β-[2-(2-aminothiazol-4-yl)-2-syn-methoxyiminoacetamido]-3-[(E)-3-[3-(2-aminothiazol-4-yl)pyridinio]-1-propenyl]-3-cephem-4-carboxylate]	12.5 (≈ 20.9 µM)	0.05 (≈ 0.0835 µM)	0.025 (≈ 0.0418 µM)	0.39 (≈ 0.651 µM)	0.025 (≈ 0.0418 µM)	0.2 (≈ 0.334 µM)	0.025 (≈ 0.0418 µM)	0.39 (≈ 0.651 µM)	0.025 (≈ 0.0418 µM)	0.2 (≈ 0.334 µM)	12.5 (≈ 20.9 µM)	0.1 (≈ 0.167 µM)	0.78 (≈ 1.3 µM)	> 100	0.2 (≈ 0.334 µM)	0.025 (≈ 0.0418 µM)	0.39 (≈ 0.651 µM)	50 (≈ 83.5 µM)	0.2 (≈ 0.334 µM)	0.025 (≈ 0.0418 µM)	MIC (S. aureus 167): 100 µg/mL (≈ 167 µM); MIC (E. cloacae Nek39): 3.13 µg/mL (≈ 5.23 µM); MIC (P. aeruginosa NCTC 10490): 1.56 µg/mL (≈ 2.61 µM); MIC (P. vulugaris OX-19): 0.025 µg/mL (≈ 0.0418 µM); MIC (S. marcescens No. 16-2): 1.56 µg/mL (≈ 2.61 µM)
CO[C@@]1(NC(=O)CSC(F)F)C(=O)N2C(C(=O)O)=C(CSc3nnnn3CCO)CO[C@@H]21 [FMOX, flomoxef, reference compound]	100 (≈ 201 µM)	0.1 (≈ 0.201 µM)	0.1 (≈ 0.201 µM)	0.2 (≈ 0.403 µM)	0.1 (≈ 0.201 µM)	100 (≈ 201 µM)	0.2 (≈ 0.403 µM)	0.39 (≈ 0.786 µM)	0.2 (≈ 0.403 µM)	0.2 (≈ 0.403 µM)	3.13 (≈ 6.3 µM)	0.2 (≈ 0.403 µM)	0.1 (≈ 0.201 µM)	> 100	0.1 (≈ 0.201 µM)	0.05 (≈ 0.101 µM)	0.39 (≈ 0.786 µM)	100 (≈ 201 µM)	0.1 (≈ 0.201 µM)	0.39 (≈ 0.786 µM)	MIC50 (clinically isolated MRSA; concentration inhibiting growth of 50% of 47 clinically isolated MRSA strains): 5.13 µg/mL (≈ 10.3 µM); MIC90 (clinically isolated MRSA; concentration inhibiting growth of 90% of 47 clinically isolated MRSA strains): 32.1 µg/mL (≈ 64.6 µM); MIC (E. cloacae Nek39): 100 µg/mL (≈ 201 µM); MIC (P. aeruginosa NCTC 10490): > 100 µg/mL; MIC (P. vulugaris OX-19): 0.39 µg/mL (≈ 0.786 µM); MIC (S. marcescens No. 16-2): 100 µg/mL (≈ 201 µM)
